We go through two compounds from EP4426265B1, “OPHTHALMIC COMPOSITION COMPRISING A LUBRICANT AGENT AND VERBASCOSIDE, AND SAID COMPOSITION FOR USE IN THE PREVENTIVE OR CURATIVE TREATMENT OF A CORNEAL EPITHELIAL DEFECT AND/OR A CONJUNCTIVAL DEFECT IN A SUBJECT” (NOVAX PHARMA S.A.M., priority 2021, dated 2023).

For the series the following is noted: not told.

The structures appear in SMILES notation.

In the case of `OB(O)O` [Boric acid], the “percentage average value (%av) of permeability” value came to 0.9%. For `C[C@@H]1O[C@@H](O[C@@H]2[C@@H](O)[C@H](OCCc3ccc(O)c(O)c3)O[C@H](CO)[C@H]2OC(=O)/C=C/c2ccc(O)c(O)c2)[C@H](O)[C@H](O)[C@H]1O` [VERBASCOSIDE, Verbascoside] the value was “not measurable”.
